Measured values: patent US8278289B2, “Boroxine composition for removal of skin changes” (priority 2006, dated 2012)

Experiments:
[1] = system: mouse carcinoma cells SCC VII; experiment: Cytotoxic effect on mouse carcinoma cells SCC VII (crystal violet viability); format: cell-based; details: viable cells by absorbance at 590 nm after 24 hours with substance; XS100 = dosage 0.5 μg; variation max 10%
Description: (§1) An investigation of anti-tumor activity of the boroxine compound (XS) was conducted on cell lines of mouse fibro-sarcoma FsaR and mouse carcinoma SCC VII.
(§2) Cell lines (mouse fibro-sarcoma FsaR and mouse carcinoma SCC VII) were incubated at optimal conditions for 24 hours, followed by addition of tested substances in a dosage of 0.5 μg (XS100) and combinations with Li (lithium) and SNP (sodium-nitroprusside) Li (lithium) is blocker of GSK-3 (glycogen-synthetase-kinase), an enzyme involved in pathways that modulate cell's death. SNP (sodium-nitroprusside) is modulator of pro-apoptotic protein p53 (tumor suppressor protein).
(§3) Cells were additionally incubated for 24 hours in the presence of the substances. Later, cells were fixed by glutaraldehyde and stained in 0.1% crystal violet. Stain attached to the viable cells was extracted by 0.2% Triton-X 100 and extract absorbance was determined at 590 nm. Value of absorbance is proportional with viable cells number.
(§4) The following results have been obtained (the observed variation of the observed values are a maximum of 10%).

mouse fibro-sarcoma FsaR = experiment: Cytotoxic effect on mouse fibro-sarcoma FsaR (crystal violet viability); format: cell-based; details: viable cells by absorbance at 590 nm after 24 hours with substance; XS100 = dosage 0.5 μg; variation max 10%
Description: as §1, §2, §3, §4

K2[B3O3F4OH] [XS100]
% of control [1]: 42 % of control
% of control (mouse fibro-sarcoma FsaR): 21 % of control
